Data reported in patent US9278120B2, “Inflammatory eye disorders” (Massachusetts Eye and Ear Infirmary, priority 2012, dated 2016).

Legend:
[1] = Visual acuity in limbal stem cell insufficiency (LSCI) patients treated with topical steroid drops; assay type: in vivo, human; conditions: OU
Experimental: (§1) In these experiments, the clinical charts and images of three patients diagnosed with LSCI were retrospectively reviewed. […] The patients were followed monthly until resolution. The patients were treated with topical steroid drops based on in vivo confocal microscopy findings that indicate the presence of inflammation. […] The images were quantified for dendritiform immune cell density (DC) and total counts of nerves and branches with respective density with ImageJ/Neuron J software.

[2] = tested on: dendritic cells in the central cornea and superior limbus; experiment: In vivo confocal microscopy of dendritiform immune cell density in LSCI patients; set-up: species or system human; conditions: for average density of dendritic cells in the superior limbus: after treatment, pooled LSCI subjects (loteprednol etabonate or rimexolone); for average dendritic cell density in the cornea: following three months of treatment, pooled LSCI subjects (loteprednol etabonate 4 eyes, rimexolone 2 eyes), 577.4±323.8 at presentation, p=0.001
Experimental: as §1

Row | Compound | visual acuity after treatment ([1]; LSCI Patient 2, 0.5% QID initially, then taper for 11 months, 20/20 OD and 20/60 OS at presentation) | visual acuity after treatment ([1]; LSCI Patient 3, 0.5% QID initially, then taper for 4 months, 20/30 OD and 20/20 OS at presentation) | average density of dendritic cells in the superior limbus [2] [cells/mm^2] | average dendritic cell density in the cornea [2] [cells/mm^2] | visual acuity after treatment ([1]; LSCI Patient 1, 1% QID initially, then taper for 5 months, 20/25 OD and 20/40 OS at presentation)
1 | CCOC(=O)O[C@]1(C(=O)OCCl)CC[C@H]2[C@@H]3CCC4=CC(=O)C=C[C@]4(C)[C@H]3[C@@H](O)C[C@@]21C [loteprednol etabonate] | 20/20 | 20/20 | 238.2±158.4 | 234.6±233.7 | –
2 | CCC(=O)[C@@]1(C)[C@H](C)C[C@H]2[C@@H]3CCC4=CC(=O)C=C[C@]4(C)[C@H]3[C@@H](O)C[C@@]21C [rimexolone] | – | – | 238.2±158.4 | 234.6±233.7 | 20/20
